Measured values taken from PubChem BioAssay AID1963958 (Molecular Pharmacology Branch, DTP, NCI, 2024).

Test system: MDA-MB-231 multicell spheroids, viability
Assay: Anticancer human tumor MDA-MB-231 cell line growth inhibition [PI3K];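 also: spheroids exposed to agents for seven days before reading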;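 as to viability, T/C: percent of vehicle control luminescence with DMSO treated spheroids as 100%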
Conditions: for IC50: curve of first compound; for viability, T/C: stronger effect = lower value
Method in brief: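 Tumor cells were combined with HUVEC and MSCs into spheroids, then dosed with PI3K-inhibitor combinations over half-log ranges capped near clinical Cmax or 10 microM.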

[1] = second compound 0.0316 µM, first compound 0.0316 µM
[2] = second compound 0.0316 µM, first compound 0.1 µM
[3] = second compound 0.1 µM, first compound 0.0316 µM
[4] = second compound 0.1 µM, first compound 0.1 µM
[5] = second compound 0.316 µM, first compound 0.0316 µM
[6] = second compound 0.316 µM, first compound 0.1 µM
[7] = second compound 1 µM, first compound 0.0316 µM
[8] = second compound 1 µM, first compound 0.1 µM
[9] = second compound 3.16 µM, first compound 0.0316 µM
[10] = second compound 3.16 µM, first compound 0.1 µM
[11] = second compound 10 µM, first compound 0.0316 µM
[12] = second compound 10 µM, first compound 0.1 µM

Question: Which IC50 (second compound 0.0316 µM) does the source give for `CC(C)NCC(C(=O)N1CCN(c2ncnc3c2C(C)CC3O)CC1)c1ccc(Cl)cc1` (centres undefined) + CC(Nc1ncnc2nc[nH]c12)c1cc2cccc(Cl)c2c(=O)n1-c1ccccc1 here?
Answer: The IC50 was 8610 nM.

Question: What about the IC50 (second compound 0.1 µM) of the same molecule?
Answer: The IC50 was 8770 nM.

Question: And the IC50 (second compound 0.316 µM)?
Answer: The IC50 was 6480 nM.

Question: What about the IC50 (second compound 1 µM) of the same molecule?
Answer: Its IC50 is 5570 nM.

Question: And the IC50 (second compound 3.16 µM)?
Answer: The IC50 was 1870 nM.

Question: What about the IC50 (second compound 10 µM) of the same molecule?
Answer: Its IC50 is 96.5 nM.

Question: What about the viability, T/C [1] of the same molecule?
Answer: The viability, T/C was 103%.

Question: What about the viability, T/C [2] of the same molecule?
Answer: The viability, T/C was 98%.

Question: What about the viability, T/C (second compound 0.0316 µM, first compound 0.316 µM) of the same molecule?
Answer: The viability, T/C was 97.1%.

Question: What about the viability, T/C (second compound 0.0316 µM, first compound 1 µM) of the same molecule?
Answer: Its viability, T/C is 91%.

Question: What about the viability, T/C (second compound 0.0316 µM, first compound 3.16 µM) of the same molecule?
Answer: The viability, T/C was 64.3%.

Question: And the viability, T/C (second compound 0.0316 µM, first compound 10 µM)?
Answer: The viability, T/C was 47.9%.

Question: And the viability, T/C [3]?
Answer: Its viability, T/C is 106%.

Question: And the viability, T/C [4]?
Answer: Its viability, T/C is 88.5%.

Question: What about the viability, T/C (second compound 0.1 µM, first compound 0.316 µM) of the same molecule?
Answer: The viability, T/C was 91.8%.

Question: And the viability, T/C (second compound 0.1 µM, first compound 1 µM)?
Answer: The viability, T/C was 82.2%.

Question: And the viability, T/C (second compound 0.1 µM, first compound 3.16 µM)?
Answer: The viability, T/C was 66.3%.

Question: What about the viability, T/C (second compound 0.1 µM, first compound 10 µM) of the same molecule?
Answer: The viability, T/C was 46.8%.

Question: What about the viability, T/C [5] of the same molecule?
Answer: Its viability, T/C is 86%.

Question: And the viability, T/C [6]?
Answer: The viability, T/C was 102%.

Question: And the viability, T/C (second compound 0.316 µM, first compound 0.316 µM)?
Answer: The viability, T/C was 86.8%.

Question: What about the viability, T/C (second compound 0.316 µM, first compound 1 µM) of the same molecule?
Answer: The viability, T/C was 77.9%.

Question: And the viability, T/C (second compound 0.316 µM, first compound 3.16 µM)?
Answer: The viability, T/C was 62.1%.

Question: What about the viability, T/C (second compound 0.316 µM, first compound 10 µM) of the same molecule?
Answer: Its viability, T/C is 43%.

Question: What about the viability, T/C [7] of the same molecule?
Answer: The viability, T/C was 92.1%.

Question: And the viability, T/C [8]?
Answer: The viability, T/C was 82.3%.

Question: What about the viability, T/C (second compound 1 µM, first compound 0.316 µM) of the same molecule?
Answer: Its viability, T/C is 76.5%.

Question: And the viability, T/C (second compound 1 µM, first compound 1 µM)?
Answer: Its viability, T/C is 65.9%.

Question: And the viability, T/C (second compound 1 µM, first compound 3.16 µM)?
Answer: The viability, T/C was 55.2%.

Question: And the viability, T/C (second compound 1 µM, first compound 10 µM)?
Answer: Its viability, T/C is 44.3%.

Question: And the viability, T/C [9]?
Answer: The viability, T/C was 63.5%.

Question: What about the viability, T/C [10] of the same molecule?
Answer: Its viability, T/C is 62.1%.

Question: What about the viability, T/C (second compound 3.16 µM, first compound 0.316 µM) of the same molecule?
Answer: Its viability, T/C is 63%.

Question: What about the viability, T/C (second compound 3.16 µM, first compound 1 µM) of the same molecule?
Answer: The viability, T/C was 51.6%.

Question: What about the viability, T/C (second compound 3.16 µM, first compound 3.16 µM) of the same molecule?
Answer: Its viability, T/C is 45.3%.

Question: What about the viability, T/C (second compound 3.16 µM, first compound 10 µM) of the same molecule?
Answer: Its viability, T/C is 39.1%.

Question: And the viability, T/C [11]?
Answer: Its viability, T/C is 52.5%.

Question: And the viability, T/C [12]?
Answer: Its viability, T/C is 48.6%.

Question: And the viability, T/C (second compound 10 µM, first compound 0.316 µM)?
Answer: Its viability, T/C is 49.3%.

Question: What about the viability, T/C (second compound 10 µM, first compound 1 µM) of the same molecule?
Answer: The viability, T/C was 40.7%.

Question: What about the viability, T/C (second compound 10 µM, first compound 3.16 µM) of the same molecule?
Answer: Its viability, T/C is 37.9%.

Question: What about the viability, T/C (second compound 10 µM, first compound 10 µM) of the same molecule?
Answer: Its viability, T/C is 31.8%.

Question: How did the IC50 (second compound 0.0316 µM) turn out when `CC(C)n1nc(-c2ccc3oc(N)nc3c2)c2c(N)ncnc21` + CC(Nc1ncnc2nc[nH]c12)c1cc2cccc(Cl)c2c(=O)n1-c1ccccc1 was run?
Answer: Its IC50 is 64.4 nM.

Question: What about the IC50 (second compound 0.1 µM) of the same molecule?
Answer: The IC50 was 65.5 nM.

Question: And the IC50 (second compound 0.316 µM)?
Answer: Its IC50 is 51.9 nM.

Question: What about the IC50 (second compound 1 µM) of the same molecule?
Answer: Its IC50 is 32.7 nM.

Question: And the IC50 (second compound 3.16 µM)?
Answer: Its IC50 is 12.5 nM.

Question: And the IC50 (second compound 10 µM)?
Answer: The IC50 was less than 0.316 nM.

Question: And the viability, T/C (second compound 0.0316 µM, first compound 0.000316 µM)?
Answer: The viability, T/C was 94.1%.

Question: What about the viability, T/C (second compound 0.0316 µM, first compound 0.001 µM) of the same molecule?
Answer: Its viability, T/C is 101%.

Question: What about the viability, T/C (second compound 0.0316 µM, first compound 0.00316 µM) of the same molecule?
Answer: The viability, T/C was 93.1%.

Question: And the viability, T/C (second compound 0.0316 µM, first compound 0.01 µM)?
Answer: Its viability, T/C is 85.6%.

Question: What about the viability, T/C [1] of the same molecule?
Answer: Its viability, T/C is 65.5%.

Question: What about the viability, T/C [2] of the same molecule?
Answer: The viability, T/C was 40.5%.

Question: And the viability, T/C (second compound 0.1 µM, first compound 0.000316 µM)?
Answer: The viability, T/C was 101%.

Question: And the viability, T/C (second compound 0.1 µM, first compound 0.001 µM)?
Answer: Its viability, T/C is 100%.

Question: What about the viability, T/C (second compound 0.1 µM, first compound 0.00316 µM) of the same molecule?
Answer: Its viability, T/C is 91.9%.

Question: What about the viability, T/C (second compound 0.1 µM, first compound 0.01 µM) of the same molecule?
Answer: The viability, T/C was 79.7%.

Question: And the viability, T/C [3]?
Answer: Its viability, T/C is 66.2%.

Question: And the viability, T/C [4]?
Answer: The viability, T/C was 41%.

Question: And the viability, T/C (second compound 0.316 µM, first compound 0.000316 µM)?
Answer: The viability, T/C was 91.7%.

Question: And the viability, T/C (second compound 0.316 µM, first compound 0.001 µM)?
Answer: Its viability, T/C is 90.2%.

Question: And the viability, T/C (second compound 0.316 µM, first compound 0.00316 µM)?
Answer: The viability, T/C was 87.2%.

Question: And the viability, T/C (second compound 0.316 µM, first compound 0.01 µM)?
Answer: The viability, T/C was 72.8%.

Question: And the viability, T/C [5]?
Answer: Its viability, T/C is 58.8%.

Question: What about the viability, T/C [6] of the same molecule?
Answer: Its viability, T/C is 39.4%.

Question: And the viability, T/C (second compound 1 µM, first compound 0.000316 µM)?
Answer: The viability, T/C was 80.5%.

Question: What about the viability, T/C (second compound 1 µM, first compound 0.001 µM) of the same molecule?
Answer: Its viability, T/C is 78%.

Question: And the viability, T/C (second compound 1 µM, first compound 0.00316 µM)?
Answer: Its viability, T/C is 76.1%.

Question: And the viability, T/C (second compound 1 µM, first compound 0.01 µM)?
Answer: Its viability, T/C is 68.5%.

Question: And the viability, T/C [7]?
Answer: The viability, T/C was 50%.

Question: What about the viability, T/C [8] of the same molecule?
Answer: Its viability, T/C is 39.2%.

Question: What about the viability, T/C (second compound 3.16 µM, first compound 0.000316 µM) of the same molecule?
Answer: Its viability, T/C is 62.1%.

Question: What about the viability, T/C (second compound 3.16 µM, first compound 0.001 µM) of the same molecule?
Answer: Its viability, T/C is 64.9%.

Question: What about the viability, T/C (second compound 3.16 µM, first compound 0.00316 µM) of the same molecule?
Answer: The viability, T/C was 57.8%.

Question: And the viability, T/C (second compound 3.16 µM, first compound 0.01 µM)?
Answer: Its viability, T/C is 50.8%.

Question: And the viability, T/C [9]?
Answer: Its viability, T/C is 43.4%.

Question: And the viability, T/C [10]?
Answer: Its viability, T/C is 31.8%.

Question: And the viability, T/C (second compound 10 µM, first compound 0.000316 µM)?
Answer: The viability, T/C was 49.2%.

Question: And the viability, T/C (second compound 10 µM, first compound 0.001 µM)?
Answer: The viability, T/C was 44.6%.

Question: What about the viability, T/C (second compound 10 µM, first compound 0.00316 µM) of the same molecule?
Answer: Its viability, T/C is 42.4%.

Question: And the viability, T/C (second compound 10 µM, first compound 0.01 µM)?
Answer: The viability, T/C was 35.9%.

Question: What about the viability, T/C [11] of the same molecule?
Answer: The viability, T/C was 30.1%.

Question: What about the viability, T/C [12] of the same molecule?
Answer: The viability, T/C was 24.2%.
